For 28 molecules, IC50 results are on record in patent publication US12404249B2, “Heterocyclic derivatives and use thereof” (C&C RESEARCH LABORATORIES, priority 2018, dated 2025).

Each structure is given as a SMILES string.

In assay [1] the target is T1, STAT3 (Homo sapiens, UniProt P40763).
T1 construct: endogenous in cells; host or cells: LNCaP (human prostate cancer) stably carrying pSTAT3-TA-luc reporter plasmid
Briefly: STAT3 activation inhibition assay (reporter gene assay, LNcaP stable cell line, IL-6 stimulated). Type of assay: cell-based. Conditions: LNcaP stable cell line [plasmid STAT3-TA-luc], IL-6 10 ng/mL, 48 hours, luciferase activity; read-out: IC50 (μM) pSTAT3. The protocol:
Cancer cell lines used for evaluating the compounds of the Examples were purchased from ATCC (American Type Culture Collection) or KCLB (Korean Cell Line Bank), and cultured according to the vendor's recommendation. The human prostate cancer cell line stably expressing the STAT3 promoter (LNcaP stable cell line [plasmid STAT3-TA-luc])—which was prepared to evaluate the inhibitory effect of the compounds of the Examples against dimerization of STAT3—was cultured in RPMI1640 (Cat no. 11875, Gibco), 10% fetal bovine serum (Cat no. SH30071.03, Hyclone) and 150 μg/mL G418 solution (Cat no. 04 727 894 001, Roche).
The reporter gene assay of LNcap stable cell line was carried out by the use of RPMI 1640 medium containing 3% DCC-FBS (without G-418). The cell line was dispensed into two (2) white 96-well plates at 30,000 cells/well/50 μL. The cell line was incubated for 24 hours under the condition of 37° C. and 5% CO2, and then the Example compounds of 50 mM DMSO stock were diluted to various concentrations and treated to two (2) white 96-well plates containing cells. Then, IL-6 was treated to a final concentration of 10 ng/mL. After the treatment of Example compounds and IL-6, the cells were cultured for 48 hours under the condition of 37° C. and 5% CO2. After 48 hours, the 96-well plates were observed under a microscope to record the presence or absence of drug precipitation and specificities, and the 96-well plates were kept at room temperature for 30 minutes. Then, in the case of the first 96-well plate, the culture medium on the plate was removed to measure the luciferase activity, and treated with passive lysis buffer at 20 µL/well and shaken for 30 minutes. The luciferase activity was measured on microLUMA LB96P (BERTHOLD) or Centro XS LB 960 (BERTHOLD) instrument using Luciferase assay system (Cat No. E1501, Promega Corporation). In the case of the second 96-well plate, 20 μL of Glo-mix solution was added to measure cytotoxicity by the compounds of the Examples, and the plate was well shaken for 10 minutes and analyzed on microLUMA LB96P (BERTHOLD) instrument using Glo-vial protocol. As a negative control, a 96 well-plate in which culture medium was added but cells were not plated was used. As a positive control, a 96 well-plate in which cells were plated and 0.1% DMSO and culture medium containing stimulation were added was used.
The results of evaluating the inhibitory effects of the compounds of the Examples against dimerization of STAT3 and STAT1 via STAT3 and STAT1 reporter gene assay are represented in Table 1.
(In general: In a reporter assay the amount or activity of a reporter protein is the signal.)

In assay [2] the test system is prostate cancer cell line (LNCap). Briefly: Cell growth inhibition assay (Celltiter Glo). Type of assay: cell-based. As to conditions: Homo sapiens, LNCap cells, 120 hours incubation. The procedure: Cancer cell inhibitory effects by the compounds of the Examples were evaluated as follows. The prostate cancer cell line (LNCap) used was cultured under the condition according to the vendor's recommendation. LNCap was dispensed into a 96-well plate at 10,000 cells/well. After incubation under the condition of 37° C. and 5% CO2 for 24 hours, the Example compounds of 50 mM DMSO stock were diluted to various concentrations and treated to the 96-well plate containing cells. After treatment of the Example compounds, LNCap cells were incubated in an incubator (37° C., 5% CO2) for 120 hours. After each incubation time, the 96-well plate was observed under a microscope to record the presence or absence of drug precipitation and specificities, and the 96-well plate was kept at room temperature for 30 minutes. Then, after addition of 20 μL of Celltiter Glo solution, the 96-well plate was well shaken for 30 minutes. The growth inhibitory activity was measured on microLUMA LB96P (BERTHOLD) instrument using Glo-vial protocol. As a negative control, a 96 well-plate in which culture medium was added but cells were not plated was used. As a positive control, a 96 well-plate in which cells were plated and 0.1% DMSO instead of drugs was added was used. The results of growth inhibitory effects of the Example compounds on prostate cancer cell line are represented in Table 2.

T1 sequence (P40763 whole entry): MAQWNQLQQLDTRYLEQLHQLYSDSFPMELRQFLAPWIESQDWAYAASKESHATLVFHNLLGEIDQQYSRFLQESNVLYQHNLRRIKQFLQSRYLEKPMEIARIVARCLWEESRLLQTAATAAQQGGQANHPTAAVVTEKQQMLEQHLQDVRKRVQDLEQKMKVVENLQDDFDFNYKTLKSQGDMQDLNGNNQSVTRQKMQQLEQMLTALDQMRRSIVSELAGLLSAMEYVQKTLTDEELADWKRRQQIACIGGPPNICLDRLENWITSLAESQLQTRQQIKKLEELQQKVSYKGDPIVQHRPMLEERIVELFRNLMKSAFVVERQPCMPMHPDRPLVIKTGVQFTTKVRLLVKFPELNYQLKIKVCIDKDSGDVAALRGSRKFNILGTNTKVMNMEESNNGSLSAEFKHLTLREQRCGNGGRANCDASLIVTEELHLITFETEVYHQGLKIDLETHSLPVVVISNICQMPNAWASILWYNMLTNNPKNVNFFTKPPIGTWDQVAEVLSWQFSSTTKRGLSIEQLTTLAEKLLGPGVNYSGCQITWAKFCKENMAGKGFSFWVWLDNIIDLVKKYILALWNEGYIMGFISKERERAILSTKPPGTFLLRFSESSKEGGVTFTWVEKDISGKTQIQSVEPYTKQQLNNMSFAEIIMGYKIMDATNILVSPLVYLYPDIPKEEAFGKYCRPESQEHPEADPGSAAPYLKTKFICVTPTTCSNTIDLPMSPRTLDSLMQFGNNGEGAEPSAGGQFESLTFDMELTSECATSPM

As to `O=[N+]([O-])c1ccc(CCNc2cc(Cl)nc3ccccc23)cc1` [Example 1, 2-chloro-N-(4-nitrophenethyl)quinolin-4-amine], the IC50 (usually the point on the concentration scale where inhibition reaches its midpoint) in assay [1] came to 2.6 µM; in assay [2], 3.5 µM.
On to `CS(=O)(=O)N(O)c1ccc(CCNc2cc(Cl)nc3ccccc23)cc1` [Example 2, N-(4-(2-((2-chloroquinolin-4-yl)amino)ethyl)phenyl)-N-hydroxymethanesulfonamide], for which the IC50 in assay [1] was 0.85 µM; in assay [2], 0.81 µM.
On the same counts, the results for `NS(=O)(=O)c1ccc(CCNc2cc(Cl)nc3ccccc23)cc1` [Example 3, 4-(2-((2-chloroquinolin-4-yl)amino)ethyl)benzenesulfonamide] are 10.5 µM and 5.1 µM.
`NS(=O)(=O)c1ccc(CCN(CCc2ccccc2)c2cc(Cl)nc3ccccc23)cc1` [Example 4, 4-(2-((2-chloroquinolin-4-yl)(phenethyl)amino)ethyl)benzenesulfonamide]: the IC50 was 20.9 µM in assay [1] and above 50 µM in assay [2].
Turning to `Cc1cc(NCCc2ccc([N+](=O)[O-])cc2)c2ccccc2n1` [Example 5, 2-methyl-N-(4-nitrophenethyl)quinolin-4-amine], the IC50 stood at 38.1 µM in assay [1] and 47.3 µM in assay [2].
Taken in the same sequence, the figures for `Nc1ccc(CCNc2cc(Cl)nc3ccccc23)cc1` [Example 6, N-(4-aminophenethyl)-2-chloroquinolin-4-amine] were 0.71 µM and 0.69 µM.
Consider `CS(=O)(=O)Nc1ccc(CCNc2cc(Cl)nc3ccccc23)cc1` [Example 7, N-(4-(2-((2-chloroquinolin-4-yl)amino)ethyl)phenyl)methanesulfonamide], for which the IC50 in assay [1] is 0.038 µM; in assay [2] it was 0.078 µM.
Consider `CCc1cccc2c(NCCc3ccc([N+](=O)[O-])cc3)cc(Cl)nc12` [Example 8, 2-chloro-8-ethyl-N-(4-nitrophenethyl)quinolin-4-amine], for which the IC50 in assay [1] stood at 7.8 µM; in assay [2], 16 µM.
With `COc1ccc2nc(Cl)cc(NCCc3ccc([N+](=O)[O-])cc3)c2c1` [Example 9, 2-chloro-6-methoxy-N-(4-nitrophenethyl)quinolin-4-amine], the IC50 in assay [1] was 3 µM; in assay [2], 7.7 µM.
On the same counts, the results for `COc1cccc2c(NCCc3ccc([N+](=O)[O-])cc3)cc(Cl)nc12` [Example 10, 2-chloro-8-methoxy-N-(4-nitrophenethyl)quinolin-4-amine] are 3.9 µM and 2.6 µM.
On the same counts, the results for `COc1ccc2nc(Cl)cc(NCCc3ccc(NS(C)(=O)=O)cc3)c2c1` [Example 11, N-(4-(2-((2-chloro-6-methoxyquinolin-4-yl)amino)ethyl)phenyl)methanesulfonamide] are 1.6 µM and 2.6 µM.
Regarding `O=[N+]([O-])c1ccc(CCNc2cc(Cl)nc3cc(OC(F)(F)F)ccc23)cc1` [Example 12, 2-chloro-N-(4-nitrophenethyl)-7-(trifluoromethoxy)quinolin-4-amine], the IC50 in assay [1] turned out to be 5.8 µM; in assay [2] it was 9.3 µM.
On the same counts, the results for `O=[N+]([O-])c1ccc(CCNc2cc(Cl)nc3cccc(OC(F)(F)F)c23)cc1` [Example 13, 2-chloro-N-(4-nitrophenethyl)-5-(trifluoromethoxy)quinolin-4-amine] are 3.1 µM and 2.5 µM.
On the same counts, the results for `O=[N+]([O-])c1ccc(CCNc2cc(Cl)nc3ccc(F)cc23)cc1` [Example 14, 2-chloro-6-fluoro-N-(4-nitrophenethyl)quinolin-4-amine] are 0.59 µM and 1.9 µM.
Taken in the same sequence, the figures for `Cc1cccc2c(NCCc3ccc([N+](=O)[O-])cc3)cc(Cl)nc12` [Example 15, 2-chloro-8-methyl-N-(4-nitrophenethyl)quinolin-4-amine] were 3.1 µM and 1.6 µM.
As to `CCOC(=O)c1ccc2nc(Cl)cc(NCCc3ccc([N+](=O)[O-])cc3)c2c1` [Example 16, ethyl 2-chloro-4-((4-nitrophenethyl)amino)quinolin-6-carboxylate], the IC50 was above 50 µM in assay [1] and 21.8 µM in assay [2].
On the same counts, the results for `O=[N+]([O-])c1ccc(CCNc2ccnc3ccccc23)cc1` [Example 17, N-(4-nitrophenethyl)quinolin-4-amine] are 1.6 µM and 4.7 µM.
Taken in the same sequence, the figures for `O=[N+]([O-])c1ccc(CCNc2nc(Cl)nc3ccccc23)cc1` [Example 18, 2-chloro-N-(4-nitrophenethyl)quinazolin-4-amine] were 0.21 µM and 0.48 µM.
Taken in the same sequence, the figures for `O=[N+]([O-])c1ccc(CCNc2cc(Cl)nc3ccc(S(=O)(=O)NCCc4ccc([N+](=O)[O-])cc4)cc23)cc1` [Example 19, 2-chloro-N-(4-nitrophenethyl)-4-((4-nitrophenethyl)amino)quinolin-6-sulfonamide] were above 50 µM and 18.4 µM.
In the case of `O=Nc1ccc(CCNc2cc(Cl)nc3ccccc23)cc1` [Example 20, 2-chloro-N-(4-nitrosophenethyl)quinolin-4-amine], the figures for the IC50 in assay [1] and in assay [2] were 0.75 µM and 0.74 µM, respectively.
As for `CS(=O)(=O)Nc1ccc(CCNc2ccnc3ccc(F)cc23)cc1` [Example 21, N-(4-(2-((6-fluoroquinolin-4-yl)amino)ethyl)phenyl)methanesulfonamide], the IC50 in assay [1] was found to be 2.3 µM; in assay [2] it was 2.4 µM.
Taken in the same sequence, the figures for `CS(=O)(=O)Nc1ccc(CCNc2cc(Cl)nc3ccc(F)cc23)cc1` [Example 22, N-(4-(2-((2-chloro-6-fluoroquinolin-4-yl)amino)ethyl)phenyl)methanesulfonamide] were 0.1 µM and 0.074 µM.
On the same counts, the results for `CS(=O)(=O)Nc1ccc(CCNc2nc(Cl)nc3ccccc23)cc1` [Example 23, N-(4-(2-((2-chloroquinazolin-4-yl)amino)ethyl)phenyl)methanesulfonamide] are 0.26 µM and 0.25 µM.
On the same counts, the results for `CS(=O)(=O)Nc1ccc(CCNc2cc(Cl)nc3cc(OC(F)(F)F)ccc23)cc1` [Example 24, N-(4-(2-((2-chloro-7-(trifluoromethoxy)quinolin-4-yl)amino)ethyl)phenyl)methanesulfonamide] are 4.1 µM and 6.2 µM.
On to `CS(=O)(=O)Nc1ccc(CCNc2ccnc3cc(OC(F)(F)F)ccc23)cc1` [Example 25, N-(4-(2-((7-(trifluoromethoxy)quinolin-4-yl)amino)ethyl)phenyl)methanesulfonamide], for which the IC50 in assay [1] came out at 1.9 µM; in assay [2], 9.6 µM.
Taken in the same sequence, the figures for `CS(=O)(=O)Nc1ccc(CCNc2cc(Cl)nc3cccc(OC(F)(F)F)c23)cc1` [Example 26, N-(4-(2-((2-chloro-5-(trifluoromethoxy)quinolin-4-yl)amino)ethyl)phenyl)methanesulfonamide] were 0.15 µM and 0.23 µM.
Taken in the same sequence, the figures for `CS(=O)(=O)Nc1ccc(CCNc2ccnc3cccc(OC(F)(F)F)c23)cc1` [Example 27, N-(4-(2-((5-(trifluoromethoxy)quinolin-4-yl)amino)ethyl)phenyl)methanesulfonamide] were 0.14 µM and 0.14 µM.
Taken in the same sequence, the figures for `O=[N+]([O-])c1ccc(CCNc2cc(Cl)nc3ccc(N4CCOCC4)cc23)cc1` [Example 28, 2-chloro-6-morpholino-N-(4-nitrophenethyl)quinolin-4-amine 2,2,2-trifluoroacetate] were 32.3 µM and 44.1 µM.
